Measurements published in patent publication US20160296606A1, “Cellular Factor-Containing Solution Compositions for the Treatment of Rhinovirus Infection and Symptoms” (Noveome Biotherapeutics, Inc., priority 2015, published 2016).
Where a name gives a salt, the structure may show the parent alone.

How the values were obtained:
[1] = system: vascular permeability (histamine-induced); assay: Evans Blue assay of vascular permeability, histamine with ACCS or CPM (Example 6); type: in vivo, rats (Sprague-Dawley); conditions: 198 μg total protein ACCS or 50 μg CPM
Method: Method: […] The Evan's Blue dye binds to albumin and other plasma proteins present in the blood and circulates throughout the animal's entire vascular system. Increased vascular permeability results in extravasation from blood vessels and capillaries of the Evans Blue dye bound to plasma protein. […] After approximately 20 min, the animals were sacrificed, and an area of skin that included the entire injection site was removed with punch biopsy.

[2] = system: vascular permeability (histamine-induced); assay: Miles assay, Evans Blue dye extravasation after intradermal injection (Example 5); type: in vivo, rat; conditions: 1 μg histamine alone intradermally (inducer of vascular permeability)
Method: Method: One hundred μL of 5% Evans Blue Dye was administered intravenously to an approximately 260 gram male rat via a jugular vein catheter. The Evans Blue dye binds to albumin and other proteins present in the blood and circulates throughout the animal's entire vascular system. One hundred μL of various test articles were then injected intradermally on the flank of the animal forming a small vesicular bleb of the injected article under on the skin surface. Changes in local vascular permeability were observed by the development of a blue spot corresponding to the Evans Blue bound protein extravasate at the injection site. Results were recorded qualitatively through photograph. The changes in Evans Blue Dye extravasation was quantitatively measured by the excision of the blue skin sample after animal sacrifice and placing the excised skin sample in 1 mL of formamide in order to extract the dye. The dye was extracted over 48 hours at 60° C. The extracted dye was then read on a plate reader for absorbance measurement at 630 nm.
The local extravasation of protein-bound Evans Blue Dye at the site of injection is correlated with the increase in vascular permeability. […] Saline and ACCS were also injected alone to serve as negative controls.

[3] = system: irritant (TPA) skin inflammation; assay: Intralesional injection in irritant TPA skin (ear) inflammation in mice; type: in vivo
Method: Method: Intralesional injection into the ear was given once daily to the following groups: 1. TPA+intralesional control; 2. TPA+intralesional ACCS; 3. TPA+intralesional kenalog (10 mg/ml) (a potent intralesional corticosteroid); 4. ACCS intralesional injection alone; 5. Saline sham injections to the normal untreated ear. The endpoints for the study were ear thickness and ear weight at the end of the experiment. The thicker the ear and the increased weight gain correlates with the degree of inflammation.

CN(C)CCC(c1ccc(Cl)cc1)c1ccccn1 (centres unmarked) [CPM, chlorpheniramine maleate]
ABS 630 nm/μg tissue ([1]; histamine dose 0.05 μg intradermal): 0.07 ABS 630 nm/μg tissue | ABS 630 nm/μg tissue ([1]; histamine dose 0.5 μg intradermal): 0.10 ABS 630 nm/μg tissue | ABS 630 nm/μg tissue ([1]; histamine dose 1 μg intradermal): 0.10 ABS 630 nm/μg tissue | ABS 630 nm/μg tissue ([1]; histamine dose 3 μg intradermal): 0.11 ABS 630 nm/μg tissue

NCCc1c[nH]cn1 [histamine]
OD 630 absorbance of extracted Evans Blue dye from tissue samples [2]: 0.495 OD units

CC1(C)O[C@@H]2C[C@H]3[C@@H]4CCC5=CC(=O)C=C[C@]5(C)[C@@]4(F)[C@@H](O)C[C@]3(C)[C@]2(C(=O)CO)O1 [kenalog]
injection site finding ([3]; intralesional injection 10 mg/ml into mouse ear): induced a hematoma at the site of injection | inflammation induced by TPA (ear thickness) ([3]; intralesional injection into the ear once daily, vs TPA+control): not a substantial difference in ear thickness | ear weight ([3]; intralesional injection once daily, compared with TPA+control): no difference in ear weight
